“Also recorded” adds a separate entry of the source.
Legend:
[1] = test system: HLA-ABC (antibody G46-2.6); assay: Anti-HLA antibody binding to PEG-phospholipid treated PBMCs, flow cytometry; type: cell-based; conditions: freshly isolated human PBMC
Description: (§1) To test the efficacy of the PEG-phospholipid (SUNBRIGHT®) PP-050CN, N-(methylpolyoxyethylene oxycarbonyl)-1,2-dipalmitoyl-sn-glycero-3-phosphoethanolamine, sodium salt, NOF Corp., Japan) to block binding of anti-HLA antibodies to HLA antigens, similar to in a potential clinical setting, we used human PBMCs from healthy donors to block the HLA antigens.
(§2) • FITC Mouse Anti-Human HLA-ABC; Monoclonal (G46-2.6) (BD Pharmingen) cat no. 555552 • Biotin Mouse Anti-human HLA Class I antibody [W6/32] (Abcam) cat no. ab110665 • PE-streptavidin (BD Pharmingen) cat no. 554061
(§3) PBMC was isolated from whole blood by using Cytiva™ Ficoll-Paque™ PLUS Media (Cytiva 17-1440-02) following standard protocol. In brief, whole blood was diluted in equal volume of PBS and carefully layered on top of Ficoll paque and centrifuged at 800×g for 25 mins. A cloudy layer was separated from the top of Ficoll and washed twice again with PBS.
(§4) The cells were stained with FITC mouse anti-human HLA-ABC monoclonal antibodies and biotin mouse anti-human HLA class | antibody [W6/32] (Abcam) followed by PE-streptavidin. The stained cells were analyzed by Beckman coulter cytoflex S (Biovis, facility, IGP, Rudbeck laboratory).

[2] = test system: HLA Class I (antibody W6/32); assay: as above; type: cell-based; conditions: freshly isolated human PBMC
Description: as §1, §2, §3, §4

[3] = test system: porcine kidney transplant, ischemia reperfusion injury; assay: Porcine clinical-like allogeneic survival transplantation model (CLSM); type: in vivo, pig; conditions: not shown
Description: During and after surgery, systemic blood was collected for up to 4 days and analyzed for creatinine, sodium, potassium and phosphate (Section for Clinical Chemistry, Uppsala University Hospital).
These studies were approved by the Ethics Committee for Animal Experimentation, Uppsala, Sweden, Dnr C123/14. For each of these studies (SM and CLSM) five donor pigs and 10 recipient pigs of both sexes were used. All pigs were certified SPF pigs (Yorkshire×Hampshire) and bred at Lövsta University herd, SLU, Sweden. At arrival to SLU the pigs were 8 weeks old.
For the SM study, the pigs were selected after typing for Swine Leucocyte Antigen (SLA) class 1 in the following manner: the donor pigs were obtained from two litters and not related to any of the recipients. The recipient pigs were siblings, matched in pairs according to SLA class 1 (see below). For the CLSM study, all recipient pigs were siblings and not related to the donors, but these the pigs were not SLA-typed.
CLSM study: In this study, the retrieval of the kidney resembled the standard operative procedure of human organ procurement. Each donor was randomized to either PEG-phospholipid or HTK treatment. […]
The recipient pigs underwent allogeneic single kidney transplantation. […] By using a urine stick the sample was analyzed for proteinurea and hematuria. […]

blood group B antigen = assay: Anti-blood group B antigen antibody binding to coated human erythrocytes, flow cytometry; type: cell-based; conditions: blood type B RBCs, 2 mg/ml in PBS, 30 min room temperature
Method: Human erythrocytes were isolated from healthy human donors. They were pre-selected for specific blood types and only individuals exposing blood type B antigens were used. Human blood was drawn from the donors using a vacuum blood collection tube (5 mL, EDTA-2Na treated, TERUMO Co., Tokyo, Japan).
After plasma and buffy coat were removed by centrifugation (15 min, 2500×g, 3 times), the erythrocytes were re-suspended in cold PBS.
This Example was approved by ethical committee of the University of Tokyo (KE17-13). Human red blood cells (RBC) were isolated from whole blood of a type-B donor and suspended in phosphate-buffered saline (PBS). A cell pellet of RBCs (5×10^7 cells) was incubated with PEG-phospholipid (20 μl, 2 mg/ml in PBS) or PBS (50 μl, as control) for 30 min at room temperature (RT, 20-25° C.) with gentle mixing. After wash with PBS by centrifugation (120×g, 4° C., 1 min) twice, Alexa488-labeled anti-blood group B antigen antibody (10 μl, used without dilution, Blood Group B antigen antibody [HEB-29], GeneTex) or PBS (10 μl) was mixed with the treated RBCs for 10 min at RT. After washing with PBS by centrifugation (120×g, 4° C., 1 min), RBC were re-suspended with PBS (1 ml) for flow cytometry measurements. […] Post analysis processing was carried out in FlowJo (BD).

[4] = test system: mannan binding lectin (MBL); assay: Binding of lectin pathway recognition molecule to coated HUVEC after serum exposure, flow cytometry; type: cell-based, human; conditions: 0.5 mg/ml
Method: Post analysis processing was carried out in FlowJo.

Q: With “N-(methylpolyoxyethylene oxycarbonyl)-1,2-dipalmitoyl-sn-glycero-3-phosphoethanolamine [PEG-phospholipid]” as the substance, how does the “binding of anti-HLA-ABC G46-2.6 to PBMCs” value [1] read?
A: robust inhibition

Q: And the “binding of anti-HLA-ABC G46-2.6 to PBMCs” value ([1]; listed as PEG-phospholipids)?
A: inhibited

Q: And the “binding of anti-HLA class I antibodies W6/32 to PBMCs” value [2]?
A: robust inhibition

Q: What about the “binding of anti-HLA class I antibodies W6/32 to PBMCs” value ([2]; listed as PEG-phospholipids) of the same substance?
A: inhibited

Q: What about the “complement and coagulation markers (C3a, sC5b-9, TAT, C3b)” value ([3]; displaying lower values) of the same substance?
A: confirmed these results

Q: What about the “cytokines / systemic inflammation” value [3] of the same substance?
A: confirmed these results

Q: What about the “binding capacity of anti-blood group B antigen-antibody” value (blood group B antigen) of the same substance?
A: effectively reduced; also recorded: effective masking

Q: And the “decrease of MBL binding from human serum” value [4]?
A: 25-30%
